According to patent US10077261B2, “Imidazolin-5-one derivative useful as FASN inhibitors for the treatment of cancer” (Janssen Pharmaceutica NV, priority 2012, dated 2018):

Experiments:
[1] = tested on: PC-3M-Luc-C6 prostate cells; assay: In vitro PC-3M-Luc-C6 prostate cell proliferation assay in lipid reduced medium; type: cell-based; details: 96 h, read-out: pIC50 PC-3M-Luc-C6 prostate cell (converted)
[2] = biological target: Fatty Acid Synthase Keto-reductase Domain (FASN KR) (Homo sapiens, UniProt P49327); assay: Fatty Acid Synthase keto-reductase domain (FASN KR) inhibition, NADPH oxidation at 340 nm
Experimental: After 20 minutes incubation at room temperature the plate was measured again (T2).
The decrease in absorbance was calculated as (Absorbance before incubation T1)−(Absorbance following incubation T2).
A plot of Controlmin versus test compound concentration was fitted to a 4-parameter logistic curve using a non-linear least squares regression method.

A2780 ovarian cells [3] = assay: A2780 ovarian cell proliferation assay in lipid reduced medium, with palmitate (MTT); type: cell-based; details: Homo sapiens, A2780, 96 h; read-out: pIC50 A2780 Ovarian Cell, With Palmitate (converted)
Procedure, shortened: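 In this palmitate-supplemented format, compound dilutions (30 μM down to 0.01 μM) are added to cells in lipid-reduced serum with 25 μM palmitate, 0.2% fatty-acid-free BSA and 0.25% ethanol. After four days (96 h) MTT absorbance at 544 nm is recorded and fitted by minimum sum of squares.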

[4] = biological target: T1, hFASN enzyme (full length) (Homo sapiens, UniProt P49327); assay: Fatty Acid Synthase (FASN) inhibition scintillation proximity assay; type: biochemical; details: for inhibition at 10 µM: read-out: Human FASN % inhibition @ 10 μM, 10 μM test compound; for IC50: read-out: Human FASN pIC50 (converted)
T1 construct: 10 μL hFASN enzyme (full length, 300 ng, purified in house); made in house
Procedure, shortened: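 Scintillation proximity format: in-house full-length enzyme, 300 ng per well, pH 7.5 phosphate/DTT buffer, ³H-acetyl-CoA and malonyl-CoA. Emission counted on LEADseeker at 610 nm at least 24 h after stopping.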

[5] = tested on: LNCaP-Vancouver prostate cells; assay: In vitro LNCaP Vancouver prostate cell proliferation assay in lipid reduced medium; type: cell-based; details: read-out: pIC50 LNCaP_Vancouver prostate cell (converted)
A2780 ovarian cells [6] = assay: A2780 ovarian cell proliferation assay in lipid reduced medium, without palmitate (MTT); type: cell-based; details: Homo sapiens, A2780, 96 h; read-out: pIC50 A2780 Ovarian Cell, Without Palmitate (converted)

Fatty Acid Synthase Keto-reductase Domain (FASN KR), sequence (P49327 whole entry, the tested form may be a part): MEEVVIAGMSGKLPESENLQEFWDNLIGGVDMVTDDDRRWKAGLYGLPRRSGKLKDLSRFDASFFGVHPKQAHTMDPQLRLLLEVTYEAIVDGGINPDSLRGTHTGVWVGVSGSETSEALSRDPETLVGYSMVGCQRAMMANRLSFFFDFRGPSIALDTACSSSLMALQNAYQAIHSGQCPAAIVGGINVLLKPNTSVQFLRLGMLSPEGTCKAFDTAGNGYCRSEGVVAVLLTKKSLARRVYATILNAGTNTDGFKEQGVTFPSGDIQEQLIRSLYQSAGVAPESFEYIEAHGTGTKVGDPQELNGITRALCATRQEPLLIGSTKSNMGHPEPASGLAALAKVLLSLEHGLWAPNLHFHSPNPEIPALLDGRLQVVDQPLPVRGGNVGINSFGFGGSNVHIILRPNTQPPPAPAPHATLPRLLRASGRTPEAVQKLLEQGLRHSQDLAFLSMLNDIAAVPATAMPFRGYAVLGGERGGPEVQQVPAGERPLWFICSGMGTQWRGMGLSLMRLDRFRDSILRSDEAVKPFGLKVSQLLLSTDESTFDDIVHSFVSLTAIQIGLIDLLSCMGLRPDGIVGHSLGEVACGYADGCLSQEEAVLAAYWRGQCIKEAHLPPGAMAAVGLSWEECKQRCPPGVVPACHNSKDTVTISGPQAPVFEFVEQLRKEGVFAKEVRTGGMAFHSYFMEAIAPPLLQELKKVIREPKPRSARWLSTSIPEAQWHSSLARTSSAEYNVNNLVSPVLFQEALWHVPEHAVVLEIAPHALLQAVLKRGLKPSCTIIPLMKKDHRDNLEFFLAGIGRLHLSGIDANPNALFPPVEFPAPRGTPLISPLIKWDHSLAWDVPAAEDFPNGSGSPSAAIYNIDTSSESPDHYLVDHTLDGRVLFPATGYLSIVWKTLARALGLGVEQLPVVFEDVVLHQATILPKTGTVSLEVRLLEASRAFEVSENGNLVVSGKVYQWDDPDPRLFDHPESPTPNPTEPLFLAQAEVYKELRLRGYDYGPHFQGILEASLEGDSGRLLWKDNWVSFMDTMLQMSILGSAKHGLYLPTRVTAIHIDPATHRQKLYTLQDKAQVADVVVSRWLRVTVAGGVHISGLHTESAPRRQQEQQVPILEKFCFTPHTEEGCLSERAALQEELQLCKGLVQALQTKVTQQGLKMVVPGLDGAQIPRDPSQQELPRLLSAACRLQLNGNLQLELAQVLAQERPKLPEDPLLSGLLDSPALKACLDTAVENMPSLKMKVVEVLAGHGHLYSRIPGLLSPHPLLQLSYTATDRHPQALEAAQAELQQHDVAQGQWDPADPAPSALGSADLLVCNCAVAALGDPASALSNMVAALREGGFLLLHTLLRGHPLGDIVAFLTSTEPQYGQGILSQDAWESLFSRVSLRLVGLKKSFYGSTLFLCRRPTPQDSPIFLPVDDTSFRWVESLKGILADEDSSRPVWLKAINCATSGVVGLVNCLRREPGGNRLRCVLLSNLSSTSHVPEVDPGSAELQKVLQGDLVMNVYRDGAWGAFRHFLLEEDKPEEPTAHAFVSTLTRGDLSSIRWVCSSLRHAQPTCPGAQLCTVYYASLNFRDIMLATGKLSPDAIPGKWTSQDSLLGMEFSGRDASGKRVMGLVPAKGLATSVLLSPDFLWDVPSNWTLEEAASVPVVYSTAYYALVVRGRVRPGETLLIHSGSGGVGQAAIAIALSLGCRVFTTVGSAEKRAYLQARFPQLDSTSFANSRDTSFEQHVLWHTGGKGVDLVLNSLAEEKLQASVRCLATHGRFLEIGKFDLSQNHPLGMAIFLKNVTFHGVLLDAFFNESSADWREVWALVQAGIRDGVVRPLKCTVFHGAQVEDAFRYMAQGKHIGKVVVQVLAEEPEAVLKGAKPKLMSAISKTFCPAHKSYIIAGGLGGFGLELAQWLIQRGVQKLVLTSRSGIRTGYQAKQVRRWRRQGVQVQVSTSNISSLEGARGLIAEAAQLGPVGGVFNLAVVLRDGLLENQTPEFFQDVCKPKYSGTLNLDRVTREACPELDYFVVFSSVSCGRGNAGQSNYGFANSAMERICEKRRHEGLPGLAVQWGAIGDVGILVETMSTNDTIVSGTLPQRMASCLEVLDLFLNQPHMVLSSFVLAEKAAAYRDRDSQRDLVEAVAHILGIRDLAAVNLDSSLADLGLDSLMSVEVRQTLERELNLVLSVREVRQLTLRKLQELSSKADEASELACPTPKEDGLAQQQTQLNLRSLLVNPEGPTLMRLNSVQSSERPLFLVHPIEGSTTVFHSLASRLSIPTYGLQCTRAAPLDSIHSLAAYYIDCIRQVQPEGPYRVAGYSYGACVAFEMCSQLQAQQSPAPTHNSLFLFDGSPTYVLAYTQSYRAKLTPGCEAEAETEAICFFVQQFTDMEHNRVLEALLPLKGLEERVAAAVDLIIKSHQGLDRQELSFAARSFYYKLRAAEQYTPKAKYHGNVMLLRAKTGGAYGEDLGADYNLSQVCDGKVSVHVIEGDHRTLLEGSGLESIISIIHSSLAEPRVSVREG
T1 sequence (P49327 whole entry): as the sequence (P49327 whole entry, the tested form may be a part) above

| Structure (SMILES) | IC50 [1] [µM] | IC50 [2] [µM] | IC50 (A2780 ovarian cells [3]) [µM] | inhibition at 10 µM [4] [%] | IC50 [4] [µM] | IC50 [5] [µM] | IC50 (A2780 ovarian cells [6]) [µM] |
| --- | --- | --- | --- | --- | --- | --- | --- |
| Cn1ncc2cc(-c3ccc(C4=NC5(CC5)C(=O)N4C[C@@H]4CCN(C(=O)C5(O)CC5)C4)c(F)c3)ccc21 [compound 370, (R)-5-(2-fluoro-4-(1-methyl-1H-indazol-5-yl)phenyl)-6-((1-(1-hydroxycyclopropanecarbonyl)pyrrolidin-3-yl)methyl)-4,6-diazaspiro[2.4]hept-4-en-7-one] | ~0.00389 | 0.0407 | > 10 | 100 | 0.0288 | 0.0204 | ~0.0024 |
| Cn1nccc1-c1ccc(-c2ccc(C3=NC4(CC4)C(=O)N3C[C@@H]3CCN(C(=O)C4(O)CC4)C3)c(F)c2)cc1 [compound 371, (R)-5-(3-fluoro-4′-(1-methyl-1H-pyrazol-5-yl)-[1,1′-biphenyl]-4-yl)-6-((1-(1-hydroxycyclopropanecarbonyl)pyrrolidin-3-yl)methyl)-4,6-diazaspiro[2.4]hept-4-en-7-one] | 0.055 | 0.129 | 8.13 | 101 | 0.0562 | 0.49 | 0.0724 |
| Cn1cnc2cc(-c3ccc(C4=NC5(CC5)C(=O)N4CC4CN(C(=O)C5(O)CC5)C4)c(F)c3)ccc21 [compound 377, 5-(2-fluoro-4-(1-methyl-1H-benzo[d]imidazol-5-yl)phenyl)-6-((1-(1-hydroxycyclopropanecarbonyl)azetidin-3-yl)methyl)-4,6-diazaspiro[2.4]hept-4-en-7-one] | 0.0282 | ~0.0363 | > 10 | 100 | 0.0355 | 0.0813 | 0.0229 |
| Cn1cnc2cc(-c3ccc(C4=NC5(CC5)C(=O)N4CC4CN(C(=O)C5(C)CC5)C4)c(F)c3)ccc21 [compound 378, 5-(2-fluoro-4-(1-methyl-1H-benzo[d]imidazol-5-yl)phenyl)-6-((1-(1-methylcyclopropanecarbonyl)azetidin-3-yl)methyl)-4,6-diazaspiro[2.4]hept-4-en-7-one] | 0.0105 | 0.0457 | > 10 | 100 | 0.0389 | 0.0741 | ~0.00513 |
| Cn1cc(-c2ccc(-c3ccc(C4=NC5(CC5)C(=O)N4C[C@@H]4CCN(C(=O)C5(O)CC5)C4)c(F)c3)cc2)cn1 [compound 379, (R)-5-(3-fluoro-4′-(1-methyl-1H-pyrazol-4-yl)-[1,1′-biphenyl]-4-yl)-6-((1-(1-hydroxycyclopropanecarbonyl)pyrrolidin-3-yl)methyl)-4,6-diazaspiro[2.4]hept-4-en-7-one] | ~0.00245 | 0.0275 | > 10 | 102 | 0.02 | 0.00501 | ~0.00107 |
| Cn1cc(-c2ccc(-c3ccc(C4=NC5(CC5)C(=O)N4CC4CN(C(=O)C5(O)CC5)C4)c(F)c3)cc2)cn1 [compound 382, 5-(3-fluoro-4′-(1-methyl-1H-pyrazol-4-yl)-[1,1′-biphenyl]-4-yl)-6-((1-(1-hydroxycyclopropanecarbonyl)azetidin-3-yl)methyl)-4,6-diazaspiro[2.4]hept-4-en-7-one] | 0.0269 | 0.0661 | > 10 | 99 | 0.0251 | 0.055 | ~0.00676 |
| CC1(C(=O)N2CC(CN3C(=O)C4(CC4)N=C3c3ccc(-c4ccc5cc(C#N)ccc5c4)cc3F)C2)CC1 [compound 385, 6-(3-fluoro-4-(6-((1-(1-methylcyclopropanecarbonyl)azetidin-3-yl)methyl)-7-oxo-4,6-diazaspiro[2.4]hept-4-en-5-yl)phenyl)-2-naphthonitrile] | ~0.00479 | 0.0437 | ~2.57 | 103 | 0.0229 | 0.0186 | ~0.00363 |
| O=C(C1CC1)N1CC[C@@H](CN2C(=O)C3(CC3)N=C2c2ccc(-c3ccc4occc4c3)cn2)C1 [compound 390, 5-[5-(1-Benzofuran-5-yl)pyridin-2-yl]-6-{[(3R)-1-(cyclopropylcarbonyl)pyrrolidin-3-yl]methyl}-4,6-diazaspiro[2.4]hept-4-en-7-one] | 1.48 | 0.676 | > 10 | 99 | 0.324 | 2.75 | ~2.63 |
| Cc1cc2cc(-c3ccc(C4=NC5(CC5)C(=O)N4CC4CN(C(=O)C5CC5)C4)c(C)c3)ccc2s1 [compound 391, 6-{[1-(Cyclopropylcarbonyl)azetidin-3-yl]methyl}-5-[2-methyl-4-(2-methyl-1-benzothiophen-5-yl)phenyl]-4,6-diazaspiro[2.4]hept-4-en-7-one] | 0.724 | 0.389 | > 10 | 104 | 0.129 | 1.7 | 1.17 |
| Cc1cc(C2=NC3(CC3)C(=O)N2CC2CN(C(=O)C3CC3)C2)ccc1-c1ccc2sccc2c1 [compound 392, 5-[4-(1-Benzothiophen-5-yl)-3-methylphenyl]-6-{[1-(cyclopropylcarbonyl)azetidin-3-yl]methyl}-4,6-diazaspiro[2.4]hept-4-en-7-one] | 1.62 | 0.871 | > 10 | 91 | 0.245 | ~1.7 | 2.51 |

More lines, now with the values ahead:

| IC50 [1] [µM] | IC50 [2] [µM] | IC50 (A2780 ovarian cells [3]) [µM] | inhibition at 10 µM [4] [%] | IC50 [4] [µM] | IC50 [5] [µM] | IC50 (A2780 ovarian cells [6]) [µM] | Structure (SMILES) |
| --- | --- | --- | --- | --- | --- | --- | --- |
| 0.0132 | 0.049 | > 10 | 101 | 0.0162 | 0.0759 | 0.00501 | O=C(N1CC(CN2C(=O)C3(CC3)N=C2c2ccc(-c3ccc4ccccc4c3)cc2F)C1)C1(O)CC1 [compound 372, 5-(2-fluoro-4-(naphthalen-2-yl)phenyl)-6-((1-(1-hydroxycyclopropanecarbbonyl)azetidin-3-yl)methyl)-4,6-diazaspiro[2.4]hept-4-en-7-one] |
| 0.0204 | 0.0355 | > 10 | 99 | 0.0257 | 0.0871 | 0.01 | O=C(N1CC(CN2C(=O)C3(CC3)N=C2c2ccc(-c3ccc4cccc(F)c4c3)cc2F)C1)C1(O)CC1 [compound 374, 5-(2-fluoro-4-(8-fluoronaphthalen-2-yl)phenyl)-6-((1-(1-hydroxycyclopropanecarbonyl)azetidin-3-yl)methyl)-4,6-diazaspiro[2.4]hept-4-en-7-one] |
| 0.0776 | 0.0891 | > 10 | 103 | 0.0437 | 0.457 | 0.0724 | COc1cccc2ccc(-c3ccc(C4=NC5(CC5)C(=O)N4CC4CN(C(=O)C5(O)CC5)C4)c(F)c3)cc12 [compound 375, 5-(2-fluoro-4-(8-methoxynaphthalen-2-yl)phenyl)-6-((1-(1-hydroxycyclopropanecarbonyl)azetidin-3-yl)methyl)-4,6-diazaspiro[2.4]hept-4-en-7-one] |
| 0.309 | 0.0955 | > 10 | 100 | 0.0661 | 1.15 | 0.132 | COc1cccc2ccc(-c3ccc(C4=NC5(CC5)C(=O)N4CC4CN(C(=O)C5CC5)C4)c(F)c3)cc12 [compound 380, 6-((1-(cyclopropanecarbonyl)azetidin-3-yl)methyl)-5-(2-fluoro-4-(8-methoxynaphthalen-2-yl)phenyl)-4,6-diazaspiro[2.4]hept-4-en-7-one] |
| 0.00191 | 0.0355 | > 10 | 98 | 0.0229 | 0.0105 | ~0.00251 | O=C(N1CC[C@@H](CN2C(=O)C3(CC3)N=C2c2ccc(-c3ccc4cc(F)ccc4c3)cc2F)C1)C1(O)CC1 [compound 381, (R)-5-(2-fluoro-4-(6-fluoronaphthalen-2-yl)phenyl)-6-((1-(1-hydroxycyclopropanecarbonyl)pyrrolidin-3-yl)methyl)-4,6-diazaspiro[2.4]hept-4-en-7-one] |
| ~0.0182 | 0.0617 | ~4.68 | 102 | 0.024 | 0.0501 | 0.0105 | O=C(N1CC(CN2C(=O)C3(CC3)N=C2c2ccc(-c3ccc4cc(Cl)ccc4c3)cc2F)C1)C1(O)CC1 [compound 383, 5-(4-(6-chloronaphthalen-2-yl)-2-fluorophenyl)-6-((1-(1-hydroxycyclopropanecarbonyl)azetidin-3-yl)methyl)-4,6-diazaspiro[2.4]hept-4-en-7-one] |
| 0.166 | ~0.851 | 5.25 | 100 | 0.0631 | 0.832 | 0.0724 | O=C(N1CC(CN2C(=O)C3(CC3)N=C2c2ccc(-c3ccc4ccc(F)cc4c3)cc2F)C1)C1(O)CC1 [compound 384, 5-(2-fluoro-4-(7-fluoronaphthalen-2-yl)phenyl)-6-((1-(1-hydroxycyclopropanecarbonyl)azetidin-3-yl)methyl)-4,6-diazaspiro[2.4]hept-4-en-7-one] |
